Experimental data taken from US6344324B2, “Quantification of cellular injury using expression of a fluorescent protein under the control of the GADD153 promoter” (Research Development Foundation, priority 2000, dated 2002).
Where “and” joins values, the source holds several entries; their conditions need not be identical. Identical values can stand only once. Like-named read-outs stand apart in the source and are kept apart here. Starred links: 1 amine or outer side, 2 acyl side, 3 side chain; linkers in the order of their positions; H or OH if unused. Positions of bridges follow the written chain, without caps; N, C: chain ends. Non-standard residues stand in square brackets, D forms with d. Residues, ends and D or L forms follow the SMILES beside them. Chains are numbered I, II in the order given. Actinocin(9to1) = Cc1c2oc3c(C)ccc(C(=O)[*:1])c3nc-2c(C(=O)[*:2])c(N)c1=O; NMeV = CN[C@H](C(=O)O)C(C)C; Sar = CNCC(=O)O

Assays:
[1] = tested on: GADD153 promoter activity in T10b45 cells
Protocol: T10b45 cells were harvested 4 days following exposure to the injurious agent, washed once and resuspended in PBS. Cytometric analysis was performed using a Becton Dickinson (Mountain View, Calif.) FACScan equipped with an argon ion laser tuned to 488 nm to excite EGFP, and a 515/545 bandpass filter to monitor the green fluorescence emitted by EGFP. The acquired data were analyzed with the CELLQuest program. Twenty thousand events were collected for each sample. An analytical gate was set such that less than 0.2% of the untreated cells exceeded the gate. The relative fold induction was calculated by dividing the percent of treated cells in the gated region by that of untreated cells harvested at same time.
Three hundred thousand T10b45 cells were seeded into 60 mm tissue culture dishes and treated 24 h later so that all experiments were performed with cells in the logarithmic phase of growth. The chemical agents were added directly to the tissue culture media. At the indicated times, the medium was removed and the cells were washed twice with serum-free medium and then incubated for 4 days in fresh drug-free medium at 37° C. following which they were subjected to flow cytometric analysis.

T10b45 cells = assay: Clonogenic (colony-forming) assay; type: cell-based, human
[2] = in this strain (BALB/c nu/nu mice); cited from earlier work
GADD153 mRNA = settings: UMSCC10b xenografts in nude mice, 50 mg/kg, 24 hr post-treatment, relative to untreated mice; ± SD; cited from earlier work
T10b45 xenografts = assay: EGFP expression in T10b45 xenografts in vivo; design: species or system BALB/c nu/nu mice; settings: for tumor cells expressing EGFP: tumors harvested 4 days later, ± SD
[3] = T10b45 cells, 4 days after the insult, conditions of maximal activation (Table 1)
[4] = colony-forming assay, 1 hour drug exposure, colonies scored after 14 days, mean ± SD, n = 3
[5] = 50 μM, 1 h exposure, GFP 4 days after treatment, relative to untreated control
[6] = quotient of fold increase in EGFP-expressing cells and Pt in DNA at 10 × IC50, mean ± SD, n = 3
[7] = 500 μM, 1 h exposure, GFP 4 days after treatment, relative to untreated control
[8] = 50 nM, 4 h exposure, GFP 4 days after treatment, relative to untreated control

Q: Which “Induction Ratio” value ([1]; 70 nM, 4 h exposure, GFP 4 days after treatment, relative to untreated control) does the source give for `CC(=O)O[C@H]1C(=O)[C@@]2(C)[C@H]([C@H](OC(=O)c3ccccc3)[C@]3(O)C[C@H](OC(=O)[C@H](O)[C@@H](NC(=O)c4ccccc4)c4ccccc4)C(C)=C1C3(C)C)[C@]1(OC(C)=O)CO[C@@H]1C[C@@H]2O` [Paclitaxel, paclitaxel] here?
A: Its value is 2.8.

Q: What about the “activation of EGFP expression (in words)” value [1, 3] of the same compound?
A: Its value is “relatively impotent”.

Q: For `COc1cccc2c1C(=O)c1c(O)c3c(c(O)c1C2=O)C[C@@](O)(C(=O)CO)C[C@@H]3O[C@H]1C[C@H](N)[C@H](O)[C@H](C)O1` [Doxorubicin, doxorubicin], which “Induction Ratio” value ([1]; 100 nM, 4 h exposure, GFP 4 days after treatment, relative to untreated control) is on record?
A: Its value is 2.4.

Q: And the “activation of EGFP expression (in words)” value [1, 3]?
A: Its value is “relatively impotent”.

Q: Which “Induction Ratio” value ([1]; 50 μM, 4 h exposure, GFP 4 days after treatment, % GFP expressing cells relative to untreated control) does the source give for `O=c1[nH]cc(F)c(=O)[nH]1` [5-Fluorouracil] here?
A: Its value is 3.0.

Q: What about the “activation of EGFP expression (in words)” value [1, 3] of the same compound?
A: Its value is “relatively impotent”.

Q: For `C[C@@]1(CO)[C@H](O)CC[C@@]2(C)[C@H]1CC[C@H]1C[C@@H]3C[C@@]12CC[C@]3(O)CO` [Aphidicolin, aphidicolin], which “Induction Ratio” value ([1]; 20 μM, 24 h exposure, GFP 4 days after treatment, relative to untreated control) is on record?
A: Its value is 2.5.

Q: And the “activation of EGFP expression (in words)” value [1, 3]?
A: The value was “relatively impotent”.

Q: Which IC50 (T10b45 cells; [4]) does the source give for `N[C@@H]1CCCC[C@H]1N.[Cl][Pt+2]([Cl])([Cl])[Cl]` [Tetraplatin, tetraplatin] here?
A: Its IC50 is 3.3 ± 0.17 µM.

Q: And the “GFP fold induction at 10 × IC50” value [1]?
A: Its value is 120 ± 7.8.

Q: What about the “Induction Ratio” value [1, 5] of the same compound?
A: Its value is 143.

Q: And the “activation of EGFP expression (in words)” value [1, 3]?
A: The value was “strongly activated”.

Q: And the “Relative EGFP activation potency at 10 × IC50” value [1, 6]?
A: Its value is 10482.7 ± 516.9 fold induction/ng Pt/ug DNA.

Q: Which “Induction Ratio” value [1, 7] does the source give for `OO` [Hydrogen peroxide, hydrogen peroxide] here?
A: Its value is 13.

Q: What about the “activation of EGFP expression (in words)” value [1, 3] of the same compound?
A: Its value is “strongly activated”.

Q: Which “Induction Ratio” value [1, 8] does the source give for `Nc1ccn([C@@H]2O[C@H](CO)[C@@H](O)C2(F)F)c(=O)n1` [Gemcitabine, gemcitabine] here?
A: Its value is 0.6.

Q: What about the “activation of EGFP expression (in words)” value [1, 3] of the same compound?
A: The value was “relatively impotent”.

Q: Which IC50 (T10b45 cells; [4]) does the source give for `N.N.[Cl][Pt+2][Cl]` [Transplatin, transplatin] here?
A: Its IC50 is 379 ± 31.6 µM.

Q: And the “GFP fold induction at 10 × IC50” value [1]?
A: The value was 10 ± 2.0.

Q: What about the “Induction Ratio” value [1, 7] of the same compound?
A: The value was 1.

Q: What about the “activation of EGFP expression (in words)” value [1, 3] of the same compound?
A: Its value is “failed to produce significant activation”.

Q: And the “Relative EGFP activation potency at 10 × IC50” value [1, 6]?
A: Its value is 41.3 ± 8.5 fold induction/ng Pt/ug DNA.

Q: Which IC50 (T10b45 cells; [4]) does the source give for `N.N.O=C([O-])C1(C(=O)[O-])CCC1.[Pt+2]` [Carboplatin, carboplatin] here?
A: Its IC50 is 10.7 ± 0.83 µM.

Q: What about the “GFP fold induction at 10 × IC50” value [1] of the same compound?
A: The value was 23 ± 2.6.

Q: What about the “Induction Ratio” value ([1]; 200 μM, 42 h exposure (so in the source), GFP 4 days after treatment, relative to untreated control) of the same compound?
A: The value was 33.

Q: What about the “activation of EGFP expression (in words)” value [1, 3] of the same compound?
A: Its value is “strongly activated”.

Q: What about the “Relative EGFP activation potency at 10 × IC50” value [1, 6] of the same compound?
A: The value was 750.4 ± 22.1 fold induction/ng Pt/ug DNA.

Q: With `O=C1[O][Pt]2([NH][C@@H]3CCCC[C@H]3[NH]2)[O]C1=O` [Oxaliplatin] as the compound, how does the IC50 (T10b45 cells) read?
A: The IC50 was 5.1 ± 0.29 µM.

Q: What about the “GFP fold induction at 10 × IC50” value [1] of the same compound?
A: Its value is 100 ± 5.3.

Q: What about the “Induction Ratio” value [1] of the same compound?
A: Its value is 105.

Q: What about the “Relative EGFP activation potency at 10 × IC50” value [1] of the same compound?
A: Its value is 5496.0 ± 655.6 fold induction/ng Pt/ug DNA.

Q: What about the “activation of EGFP expression (in words)” value [1] of the same compound?
A: The value was “strongly activated”.

Q: With `COc1cc([C@@H]2c3cc4c(cc3[C@@H](O[C@@H]3O[C@@H]5CO[C@@H](C)O[C@H]5[C@H](O)[C@H]3O)[C@H]3COC(=O)[C@H]23)OCO4)cc(OC)c1O` [Etoposide, etoposide] as the compound, how does the “Induction Ratio” value ([1]; 5 μM, 4 h exposure, GFP 4 days after treatment, relative to untreated control) read?
A: The value was 4.

Q: What about the “activation of EGFP expression (in words)” value [1, 3] of the same compound?
A: The value was “relatively impotent”.

Q: For `CC(=O)[O][Pt]([NH2])([Cl])([Cl])([NH]C1CCCCC1)[O]C(C)=O` [JM216], which IC50 (T10b45 cells; [4]) is on record?
A: The IC50 was 4.5 ± 0.35 µM.

Q: And the “GFP fold induction at 10 × IC50” value [1]?
A: Its value is 11 ± 3.2.

Q: And the “Induction Ratio” value ([1]; 150 μM, 1 h exposure, GFP 4 days after treatment, relative to untreated control)?
A: Its value is 43.

Q: And the “activation of EGFP expression (in words)” value [1, 3]?
A: The value was “strongly activated”.

Q: And the “Relative EGFP activation potency at 10 × IC50” value [1, 6]?
A: Its value is 70.6 ± 20.5 fold induction/ng Pt/ug DNA.

Q: For `Cc1c2oc3c(C)ccc(C(=O)N[C@@H]4C(=O)N[C@H](C(C)C)C(=O)N5CCC[C@H]5C(=O)N(C)CC(=O)N(C)[C@@H](C(C)C)C(=O)O[C@@H]4C)c3nc-2c(C(=O)N[C@@H]2C(=O)N[C@H](C(C)C)C(=O)N3CCC[C@H]3C(=O)N(C)CC(=O)N(C)[C@@H](C(C)C)C(=O)O[C@@H]2C)c(N)c1=O` [Actinomycin D, actinomycin D] (I: T[dV]P[Sar][NMeV] / II: T[dV]P[Sar][NMeV]; ester I:1-I:C, II:1-II:C; linker I:N-II:N via Actinocin(9to1)), which “Induction Ratio” value [1] is on record?
A: Its value is 7.6.

Q: What about the “activation of EGFP expression (in words)” value [1] of the same compound?
A: The value was “strongly activated”.

Q: For `O=NN(CCCl)C(=O)NCCCl` [BCNU], which “Induction Ratio” value [1] is on record?
A: The value was 4.

Q: What about the “activation of EGFP expression (in words)” value [1] of the same compound?
A: Its value is “failed to produce significant activation”.

Q: Which results are given for `Cc1nc2ccc(CN(C)c3ccc(C(=O)N[C@@H](CCC(=O)O)C(=O)O)s3)cc2c(=O)[nH]1` [Raltitrexed]?
A: Induction Ratio [1, 8]: 0.6; activation of EGFP expression (in words) [1, 3]: relatively impotent

Q: With `N.N.[Cl][Pt][Cl]` [Cisplatin] as the compound, how does the LD10 [2] read?
A: Its LD10 is 12 mg/kg.

Q: And the “GADD153 mRNA level increase” value (GADD153 mRNA)?
A: The value was 3.0±0.4 fold.

Q: And the “fold increase in the fraction of EGFP-expressing cells” value (T10b45 xenografts; 5 mg/kg single i.p., 4 days, relative to untreated tumors)?
A: Its value is 3.8 fold.

Q: What about the “fold increase in the fraction of cells expressing EGFP” value (T10b45 xenografts; 15 mg/kg single i.p., 4 days, relative to untreated tumors) of the same compound?
A: Its value is 29 fold and 29.2±6.2 fold.

Q: What about the “tumor cells expressing EGFP” value (T10b45 xenografts; cisplatin 5 mg/kg single i.p.) of the same compound?
A: The value was 0.49±0.5%.

Q: And the “tumor cells expressing EGFP” value (T10b45 xenografts; cisplatin 15 mg/kg single i.p., untreated 0.13±0.02 %)?
A: The value was 3.8±0.8%.

Q: And the IC50 (T10b45 cells; [4])?
A: The IC50 was 4.2 ± 0.03 µM.

Q: And the “GFP fold induction at 10 × IC50” value [1]?
A: The value was 38 ± 3.2.

Q: What about the “Relative EGFP activation potency at 10 × IC50” value [1] of the same compound?
A: Its value is 825.0 ± 29.4 fold induction/ng Pt/ug DNA.

Q: What about the “Induction Ratio” value [1, 5] of the same compound?
A: Its value is 42.

Q: What about the “activation of EGFP expression (in words)” value [1, 3] of the same compound?
A: The value was “strongly activated”.

Q: Which “Induction Ratio” value ([1]; 20 nM, 4 h exposure, GFP 4 days after treatment, relative to untreated control) does the source give for `CC[C@@]1(O)C(=O)OCc2c1cc1n(c2=O)Cc2cc3c(CN(C)C)c(O)ccc3nc2-1` [Topotecan] here?
A: The value was 1.3.

Q: And the “activation of EGFP expression (in words)” value [1, 3]?
A: The value was “relatively impotent”.
